Test results published in US20170334899A1, “AMINO-SUBSTITUTED ISOTHIAZOLES” (Bayer Pharma Aktiengesellschaft, priority 2014, published 2017).

Key:
Type in all cases: cell-based
B16F10 = experiment: Proliferation assay (crystal violet), B16F10; settings: Mus musculus, B16-F10, 96 h; B16F10 cells; 4 days incubation; crystal violet staining; read-out: IC50 inhibition of proliferation, B16F10
Description: (§1) Cultivated tumor cells (cells were ordered from ATCC, except HeLa-MaTu and HeLa-MaTu-ADR, which were ordered from EPO-GmbH, Berlin) were plated at a density of 1000 to 5000 cells/well, depending on the growth rate of the respective cell line, in a 96-well multititer plate in 200 μL of their respective growth medium supplemented 10% fetal calf serum. After 24 hours, the cells of one plate (zero-point plate) were stained with crystal violet (see below), while the medium of the other plates was replaced by fresh culture medium (200 μl), to which the test substances were added in various concentrations (0 μM, as well as in the range of 0.001-10 μM; the final concentration of the solvent dimethyl sulfoxide was 0.5%). The cells were incubated for 4 days in the presence of test substances. Cell proliferation was determined by staining the cells with crystal violet: the cells were fixed by adding 20 μl/measuring point of an 11% glutaric aldehyde solution for 15 minutes at room temperature. After three washing cycles of the fixed cells with water, the plates were dried at room temperature. The cells were stained by adding 100 μl/measuring point of a 0.1% crystal violet solution (pH 3.0). After three washing cycles of the stained cells with water, the plates were dried at room temperature. The dye was dissolved by adding 100 μl/measuring point of a 10% acetic acid solution. Absorbtion was determined by photometry at a wavelength of 595 nm. The change of cell number, in percent, was calculated by normalization of the measured values to the aborbtion values of the zero-point plate (=0%) and the absorbtion of the untreated (0 μm) cells (=100%). The IC50 values were determined by means of a 4 parameter fit.

DU145 = experiment: Proliferation assay (crystal violet), DU145; settings: Homo sapiens, DU-145, 96 h; DU145 cells; 4 days incubation; crystal violet staining; read-out: IC50 inhibition of proliferation, DU145
Description: as §1

HeLa-MaTu-ADR = experiment: Proliferation assay (crystal violet), HeLa-MaTu-ADR; settings: 96 h; HeLa-MaTu-ADR cells; 4 days incubation; crystal violet staining; read-out: IC50 inhibition of proliferation, HeLa-MaTu-ADR
Description: as §1

Caco-2 = experiment: Proliferation assay (crystal violet), Caco-2; settings: Homo sapiens, 96 h; Caco-2 cells; 4 days incubation; crystal violet staining; read-out: IC50 inhibition of proliferation, Caco2
Description: as §1

NCI-H460 = experiment: Proliferation assay (crystal violet), NCI-H460; settings: Homo sapiens, 96 h; NCI-H460 cells; 4 days incubation; crystal violet staining; read-out: IC50 inhibition of proliferation, NCI-H460
Description: as §1

IC50 (B16F10) | IC50 (DU145) | IC50 (HeLa-MaTu-ADR) | IC50 (Caco-2) | IC50 (NCI-H460) | Structure (SMILES)
1400 nM | 1900 nM | 880 nM | 1400 nM | 750 nM | Cc1nsc(Nc2cnc3ccccc3n2)c1C(=O)Nc1ccc(OC2CCN(CC(F)(F)F)CC2)nc1 [Example 21, 3-Methyl-5-(quinoxalin-2-ylamino)-N-(6-{[1-(2,2,2-trifluoroethyl)piperidin-4-yl]oxy}-pyridin-3-yl)-1,2-thiazole-4-carboxamide]
610 nM | 680 nM | 250 nM | 410 nM | 280 nM | Cc1nsc(Nc2ccc(C#N)cn2)c1C(=O)Nc1ccc(OC2CCN(C(=O)OC(C)(C)C)CC2)nc1 [Example 27, tert-Butyl 4-({5-[({5-[(5-cyanopyridin-2-yl)amino]-3-methyl-1,2-thiazol-4-yl}-carbonyl)amino]pyridin-2-yl}oxy)piperidine-1-carboxylate]
